Test results published in paper PMC11277489, “Novel Piperazine Derivatives of Vindoline as Anticancer Agents” (International Journal of Molecular Sciences, 2024).
Read-outs that look alike come from different tables or passages of the source.

Experiments:
[1] = test system: T-47D; assay: NCI60 one-dose screen (10 μM), Breast Cancer; format: cell-based; conditions: Homo sapiens, T47D, read-out: Growth percent rate
[2] = test system: SK-OV-3; assay: NCI60 one-dose screen (10 μM), Ovarian Cancer; format: cell-based; conditions: Homo sapiens
[3] = test system: NCI/ADR-RES; assay: NCI60 five-dose screen, Ovarian Cancer; format: cell-based; conditions: Homo sapiens
[4] = test system: SR; assay: NCI60 one-dose screen (10 μM), Leukemia; format: cell-based; conditions: Homo sapiens, read-out: Growth percent rate
[5] = test system: HCC-2998; assay: NCI60 five-dose screen, Colon Cancer; format: cell-based; conditions: Homo sapiens
[6] = test system: DU-145; assay: NCI60 one-dose screen (10 μM), Prostate Cancer; format: cell-based; conditions: Homo sapiens
[7] = test system: K-562; assay: NCI60 five-dose screen, Leukemia; format: cell-based; conditions: Homo sapiens, K562
[8] = test system: NCI-H522; assay: NCI60 five-dose screen, Non-small Cell Lung Cancer; format: cell-based; conditions: Homo sapiens
[9] = test system: SNB-75; assay: NCI60 five-dose screen, CNS Cancer; format: cell-based; conditions: Homo sapiens
[10] = test system: NCI-H226; assay: NCI60 one-dose screen (10 μM), Non-small Cell Lung Cancer; format: cell-based; conditions: Homo sapiens
[11] = test system: OVCAR-5; assay: NCI60 one-dose screen (10 μM), Ovarian Cancer; format: cell-based; conditions: Homo sapiens
[12] = test system: MDA-MB-435; assay: NCI60 five-dose screen, Melanoma; format: cell-based; conditions: Homo sapiens
[13] = test system: UO-31; assay: NCI60 one-dose screen (10 μM), Renal Cancer; format: cell-based; conditions: Homo sapiens
[14] = test system: 60 human tumor cell lines (NCI60); assay: NCI60 one-dose screen (10 μM), whole panel; format: cell-based; conditions: for activity at 10 µM: read-out: Growth percent rate, Mean
[15] = test system: EKVX; assay: NCI60 five-dose screen, Non-small Cell Lung Cancer; format: cell-based; conditions: Homo sapiens
[16] = test system: HOP-92; assay: NCI60 five-dose screen, Non-small Cell Lung Cancer; format: cell-based; conditions: Homo sapiens
[17] = test system: T-47D; assay: NCI60 five-dose screen, Breast Cancer; format: cell-based; conditions: Homo sapiens, T47D
[18] = test system: OVCAR-8; assay: NCI60 five-dose screen, Ovarian Cancer; format: cell-based; conditions: Homo sapiens
[19] = test system: IGROV1; assay: NCI60 five-dose screen, Ovarian Cancer; format: cell-based; conditions: Homo sapiens, IGROV-1
[20] = test system: RXF 393; assay: NCI60 one-dose screen (10 μM), Renal Cancer; format: cell-based, human; conditions: Homo sapiens
[21] = test system: TK-10; assay: NCI60 five-dose screen, Renal Cancer; format: cell-based; conditions: Homo sapiens
[22] = test system: U251; assay: NCI60 five-dose screen, CNS Cancer; format: cell-based; conditions: Homo sapiens, U-251
[23] = test system: NCI-H23; assay: NCI60 five-dose screen, Non-small Cell Lung Cancer; format: cell-based; conditions: Homo sapiens
[24] = test system: UACC-257; assay: NCI60 five-dose screen, Melanoma; format: cell-based; conditions: Homo sapiens
[25] = test system: LOX IMVI; assay: NCI60 one-dose screen (10 μM), Melanoma; format: cell-based, human; conditions: Homo sapiens, LOX IMVI, read-out: Growth percent rate
[26] = test system: NCI-H460; assay: NCI60 five-dose screen, Non-small Cell Lung Cancer; format: cell-based; conditions: Homo sapiens
[27] = test system: NCI/ADR-RES; assay: NCI60 one-dose screen (10 μM), Ovarian Cancer; format: cell-based; conditions: Homo sapiens, read-out: Growth percent rate
[28] = test system: SF-268; assay: NCI60 five-dose screen, CNS Cancer; format: cell-based; conditions: Homo sapiens
[29] = test system: OVCAR-4; assay: NCI60 five-dose screen, Ovarian Cancer; format: cell-based; conditions: Homo sapiens
[30] = test system: BT-549; assay: NCI60 one-dose screen (10 μM), Breast Cancer; format: cell-based; conditions: Homo sapiens
[31] = test system: HT29; assay: NCI60 five-dose screen, Colon Cancer; format: cell-based; conditions: Homo sapiens, HT-29
[32] = test system: NCI-H226; assay: NCI60 five-dose screen, Non-small Cell Lung Cancer; format: cell-based; conditions: Homo sapiens
[33] = test system: MDA-MB-231/ATCC; assay: NCI60 one-dose screen (10 μM), Breast Cancer; format: cell-based, human; conditions: Homo sapiens
[34] = test system: LOX IMVI; assay: NCI60 five-dose screen, Melanoma; format: cell-based; conditions: Homo sapiens
[35] = test system: CAKI-1; assay: NCI60 five-dose screen, Renal Cancer; format: cell-based; conditions: Homo sapiens
[36] = test system: PC-3; assay: NCI60 one-dose screen (10 μM), Prostate Cancer; format: cell-based; conditions: Homo sapiens
[37] = test system: HL-60(TB); assay: NCI60 five-dose screen, Leukemia; format: cell-based; conditions: Homo sapiens
[38] = test system: MALME-3M; assay: NCI60 five-dose screen, Melanoma; format: cell-based; conditions: Homo sapiens
[39] = test system: SF-268; assay: NCI60 one-dose screen (10 μM), CNS Cancer; format: cell-based; conditions: Homo sapiens
[40] = test system: SK-MEL-5; assay: NCI60 five-dose screen, Melanoma; format: cell-based; conditions: Homo sapiens
[41] = test system: OVCAR-4; assay: NCI60 one-dose screen (10 μM), Ovarian Cancer; format: cell-based; conditions: Homo sapiens
[42] = test system: HCT-15; assay: NCI60 five-dose screen, Colon Cancer; format: cell-based; conditions: Homo sapiens
[43] = test system: UACC-62; assay: NCI60 one-dose screen (10 μM), Melanoma; format: cell-based; conditions: Homo sapiens

Work on `CC[C@]12C=CCN3CC[C@@]4(c5ccc(OC)cc5N(C)[C@H]4[C@@](O)(C(=O)OC)[C@@H]1OC(=O)CCCN1CCN(Cc4ccc(F)cc4)CC1)[C@@H]32` [Compound 24] yielded an activity at 10 µM ([1]; 10 μM, T-47D, Breast Cancer) of 28.8%, an activity at 10 µM ([2]; 10 μM, SK-OV-3, Ovarian Cancer, read-out: Growth percent rate) of 70% and a GI50 ([3]; Ovarian Cancer, five-dose screen, read-out: GI50) of 11800 nM. The activity at 10 µM ([4]; 10 μM, Leukemia) was 4.82%, the GI50 ([5]; HCC-2998, Colon Cancer, five-dose screen, read-out: GI50) was 2190 nM and the activity at 10 µM ([6]; 10 μM, DU-145, Prostate Cancer, read-out: Growth percent rate) was 39.5%. The GI50 ([7]; K-562, Leukemia, five-dose screen, read-out: GI50) was 2400 nM, the GI50 ([8]; NCI-H522, Non-small Cell Lung Cancer, five-dose screen, read-out: GI50) was 13800 nM and the GI50 ([9]; SNB-75, CNS Cancer, five-dose screen, read-out: GI50) was 1120 nM. The activity at 10 µM ([10]; 10 μM, NCI-H226, Non-small Cell Lung Cancer, read-out: Growth percent rate) was 50.2%, the activity at 10 µM ([11]; 10 μM, OVCAR-5, Ovarian Cancer, read-out: Growth percent rate) was 81.2% and the GI50 ([12]; MDA-MB-435, Melanoma, five-dose screen, read-out: GI50) was 5500 nM. It also gave an activity at 10 µM ([13]; 10 μM, UO-31, Renal Cancer, read-out: Growth percent rate) of 20.7%, an activity at 10 µM ([14]; 10 μM, mean over 60 human cancer cell lines) of 20.4% and a GI50 ([15]; Non-small Cell Lung Cancer, five-dose screen, read-out: GI50) of 12000 nM. The GI50 ([16]; HOP-92, Non-small Cell Lung Cancer, five-dose screen, read-out: GI50) was 1660 nM, the GI50 ([17]; T-47D, Breast Cancer, five-dose screen, read-out: GI50) was 5620 nM and the GI50 ([18]; OVCAR-8, Ovarian Cancer, five-dose screen, read-out: GI50) was 14400 nM. The GI50 ([19]; IGROV1, Ovarian Cancer, five-dose screen, read-out: GI50) was 2510 nM, the activity at 10 µM ([20]; 10 μM, RXF 393, Renal Cancer, read-out: Growth percent rate) was -8.13% and the GI50 ([21]; TK-10, Renal Cancer, five-dose screen, read-out: GI50) was 4900 nM. For the same molecule, the GI50 ([22]; U251, CNS Cancer, five-dose screen, read-out: GI50) was 7590 nM, the GI50 ([23]; NCI-H23, Non-small Cell Lung Cancer, five-dose screen, read-out: GI50) was 13200 nM and the GI50 ([24]; UACC-257, Melanoma, five-dose screen, read-out: GI50) was 2000 nM. It also gave an activity at 10 µM ([25]; 10 μM, Melanoma) of 5.04%, a GI50 ([26]; NCI-H460, Non-small Cell Lung Cancer, five-dose screen, read-out: GI50) of 8510 nM and an activity at 10 µM ([27]; 10 μM, Ovarian Cancer) of 42%. For the same molecule, the GI50 ([28]; SF-268, CNS Cancer, five-dose screen, read-out: GI50) was 5250 nM, the GI50 ([29]; OVCAR-4, Ovarian Cancer, five-dose screen, read-out: GI50) was 5370 nM and the activity at 10 µM ([30]; 10 μM, BT-549, Breast Cancer, read-out: Growth percent rate) was 16.3%. It also gave a GI50 ([31]; HT29, Colon Cancer, five-dose screen, read-out: GI50) of 3800 nM, a GI50 ([32]; NCI-H226, Non-small Cell Lung Cancer, five-dose screen, read-out: GI50) of 10500 nM and an activity at 10 µM ([33]; 10 μM, MDA-MB-231/ATCC, Breast Cancer, read-out: Growth percent rate) of 51.5%. The GI50 ([34]; Melanoma, five-dose screen, read-out: GI50) was 5010 nM, the GI50 ([35]; CAKI-1, Renal Cancer, five-dose screen, read-out: GI50) was 2240 nM and the activity at 10 µM ([36]; 10 μM, PC-3, Prostate Cancer, read-out: Growth percent rate) was 12.9%. The GI50 ([37]; HL-60(TB), Leukemia, five-dose screen, read-out: GI50) was 3310 nM, the GI50 ([38]; MALME-3M, Melanoma, five-dose screen, read-out: GI50) was 2290 nM and the activity at 10 µM ([39]; 10 μM, SF-268, CNS Cancer, read-out: Growth percent rate) was 42.5%. For the same molecule, the GI50 ([40]; SK-MEL-5, Melanoma, five-dose screen, read-out: GI50) was 1660 nM, the activity at 10 µM ([41]; 10 μM, OVCAR-4, Ovarian Cancer, read-out: Growth percent rate) was 33% and the GI50 ([42]; HCT-15, Colon Cancer, five-dose screen, read-out: GI50) was 5130 nM. It also gave an activity at 10 µM ([43]; 10 μM, UACC-62, Melanoma, read-out: Growth percent rate) of 34.7%.
`CC[C@]12C=CCN3CC[C@@]4(c5ccc(OC)cc5N(C)[C@H]4[C@@](O)(C(=O)OC)[C@@H]1OC(=O)CCCN1CCN(C(c4ccc(F)cc4)c4ccc(F)cc4)CC1)[C@@H]32` [Compound 25] gave an activity at 10 µM [1] of -64.6%, an activity at 10 µM ([2]; SK-OV-3, read-out: Growth percent rate) of -72.5% and a GI50 [3] of 1740 nM. The activity at 10 µM [4] was -43.6%, the GI50 ([5]; HCC 2998) was 1660 nM and the activity at 10 µM ([6]; DU-145, read-out: Growth percent rate) was -94.4%. For the same molecule, the GI50 [7] was 1910 nM, the GI50 ([8]; NCI-H522) was 1700 nM and the GI50 ([9]; SNB-75) was 5010 nM. For the same molecule, the activity at 10 µM ([10]; NCI-H226, read-out: Growth percent rate) was -74.8%, the activity at 10 µM ([11]; OVCAR-5, read-out: Growth percent rate) was -92% and the GI50 ([12]; MDA-MB-435) was 1660 nM. For the same molecule, the activity at 10 µM ([13]; UO-31, read-out: Growth percent rate) was -97.8%, the growth rate ([14]; 10 μM one-dose, on almost all tested cancer types and cell lines, negative = lethality) was under −60% and the activity at 10 µM ([14]; Homo sapiens) was -79.9%. The GI50 [15] was 1700 nM, the GI50 ([16]; HOP-92) was 1350 nM and the GI50 [17] was 1660 nM. For the same molecule, the GI50 ([18]; OVCAR-8) was 2090 nM, the GI50 [19] was 1380 nM and the activity at 10 µM ([20]; RXF 393, read-out: Growth percent rate) was -94.5%. It also gave a GI50 ([21]; TK-10) of 1510 nM, a GI50 [22] of 1550 nM and a GI50 ([23]; NCI-H23) of 1910 nM. The GI50 ([24]; UACC-257) was 1740 nM, the activity at 10 µM [25] was -98.8% and the GI50 ([26]; NCI-H460) was 1780 nM. It also gave an activity at 10 µM [27] of -80.8%, a GI50 ([28]; SF-268) of 1700 nM and a GI50 ([29]; OVCAR-4) of 1950 nM. The activity at 10 µM ([30]; BT-549, read-out: Growth percent rate) was -92.4%, the GI50 [31] was 1910 nM and the GI50 ([32]; NCI-H226) was 2040 nM. It also gave an activity at 10 µM ([33]; MDA-MB-231, read-out: Growth percent rate) of -94%, a GI50 [34] of 1740 nM and a GI50 ([35]; CAKI-1) of 1480 nM. For the same molecule, the activity at 10 µM ([36]; PC-3, read-out: Growth percent rate) was -72.3%, the GI50 ([37]; HL-60) was 1550 nM and the GI50 ([38]; Malme-3M) was 1510 nM. The activity at 10 µM ([39]; SF-268, read-out: Growth percent rate) was -81.9%, the GI50 ([40]; SK-MEL-5) was 1550 nM and the activity at 10 µM ([41]; OVCAR-4, read-out: Growth percent rate) was -41.5%. It also gave a GI50 ([42]; HCT-15) of 1700 nM and an activity at 10 µM ([43]; UACC-62, read-out: Growth percent rate) of -92.5%.
